Measured values published in ChEMBL document CHEMBL4261633, “Butenolides from a marine-derived fungus Aspergillus terreus with antitumor activities against pancreatic ductal adenocarcinoma cells” (Bioorg Med Chem, 2018).
Activity calls are given as the source filed them. No cut-off for these calls is given here.

Experiments:
[1] = tested on: PANC-1; experiment: Cell cycle arrest in human PANC1 cells assessed as accumulation at G1 phase at 25 uM after 24 hrs by RNAase/propidium iodide staining-based flow cytometric analysis (reference value: 67.93 to 75.87%); type: functional
[2] = tested on: PANC-1; experiment: Induction of apoptosis in human PANC1 cells assessed as early apoptotic cells at 5 uM after 24 hrs by FITC-Annexin V/propidium iodide staining-based flow cytometric analysis (reference value: 0.5 to 3.2%); type: functional
[3] = tested on: PANC-1; experiment: Induction of apoptosis in human PANC1 cells assessed as necrotic cells at 10 uM after 24 hrs by FITC-Annexin V/propidium iodide staining-based flow cytometric analysis (reference value: 0.7 to 1.4%); type: functional
[4] = tested on: PANC-1; experiment: Cell cycle arrest in human PANC1 cells assessed as accumulation at G2/M phase at 25 uM after 24 hrs by RNAase/propidium iodide staining-based flow cytometric analysis (reference value: 6.83 to 11.82%); type: functional
[5] = tested on: PANC-1; experiment: Induction of apoptosis in human PANC1 cells assessed as early apoptotic cells at 25 uM after 24 hrs by FITC-Annexin V/propidium iodide staining-based flow cytometric analysis (reference value: 0.5 to 3.2%); type: functional
[6] = tested on: PANC-1; experiment: Induction of apoptosis in human PANC1 cells assessed as early apoptotic cells at 15 uM after 24 hrs by FITC-Annexin V/propidium iodide staining-based flow cytometric analysis (reference value: 0.5 to 3.2%); type: functional
[7] = tested on: PANC-1; experiment: Induction of apoptosis in human PANC1 cells assessed as late apoptotic cells at 5 uM after 24 hrs by FITC-Annexin V/propidium iodide staining-based flow cytometric analysis (reference value: 0.0 to 0.7%); type: functional
[8] = tested on: PANC-1; experiment: Induction of apoptosis in human PANC1 cells assessed as nuclear fragmentation at 10 uM after 24 hrs by Hoechst 33258 staining based fluorescence microscopic analysis; type: functional, cell-based
[9] = tested on: PANC-1; experiment: Cell cycle arrest in human PANC1 cells assessed as accumulation at G1 phase at 5 uM after 24 hrs by RNAase/propidium iodide staining-based flow cytometric analysis (reference value: 67.93 to 75.87%); type: functional
[10] = tested on: PANC-1; experiment: Cell cycle arrest in human PANC1 cells assessed as accumulation at G2/M phase at 5 uM after 24 hrs by RNAase/propidium iodide staining-based flow cytometric analysis (reference value: 6.83 to 11.82%); type: functional
[11] = tested on: PANC-1; experiment: Cell cycle arrest in human PANC1 cells assessed as accumulation at G1 phase at 15 uM after 24 hrs by RNAase/propidium iodide staining-based flow cytometric analysis (reference value: 67.93 to 75.87%); type: functional
[12] = tested on: PANC-1; experiment: Antiproliferative activity against human PANC1 cells after 24 hrs by CCK8 assay; type: functional, cell-based; conditions: PANC-1, 24 h
[13] = tested on: PANC-1; experiment: Cell cycle arrest in human PANC1 cells assessed as accumulation at S phase at 10 uM after 24 hrs by RNAase/propidium iodide staining-based flow cytometric analysis (reference value: 11.66 to 19.02%); type: functional
[14] = tested on: BEAS-2B; experiment: Antiproliferative activity against human BEAS2B cells after 24 hrs by CCK8 assay; type: functional, cell-based
[15] = tested on: PANC-1; experiment: Induction of apoptosis in human PANC1 cells assessed as late apoptotic cells at 15 uM after 24 hrs by FITC-Annexin V/propidium iodide staining-based flow cytometric analysis (reference value: 0.0 to 0.7%); type: functional
[16] = tested on: HCC1806; experiment: Antiproliferative activity against human HCC1806 cells after 24 hrs by CCK8 assay; type: functional, cell-based; conditions: HCC1806, 24 h
[17] = tested on: PANC-1; experiment: Cell cycle arrest in human PANC1 cells assessed as accumulation at S phase at 25 uM after 24 hrs by RNAase/propidium iodide staining-based flow cytometric analysis (reference value: 11.66 to 19.02%); type: functional
[18] = tested on: PANC-1; experiment: Induction of apoptosis in human PANC1 cells assessed as viable cells at 5 uM after 24 hrs by FITC-Annexin V/propidium iodide staining-based flow cytometric analysis (reference value: 94.7 to 98.7%); type: functional; conditions: PANC-1, 24 h, read-out: Activity
[19] = tested on: HepG2; experiment: Antiproliferative activity against human HepG2 cells after 24 hrs by CCK8 assay; type: functional, cell-based; conditions: HepG2, 24 h
[20] = tested on: PANC-1; experiment: Induction of apoptosis in human PANC1 cells assessed as late apoptotic cells at 10 uM after 24 hrs by FITC-Annexin V/propidium iodide staining-based flow cytometric analysis (reference value: 0.0 to 0.7%); type: functional
[21] = tested on: PANC-1; experiment: Cell cycle arrest in human PANC1 cells assessed as accumulation at G2/M phase at 15 uM after 24 hrs by RNAase/propidium iodide staining-based flow cytometric analysis (reference value: 6.83 to 11.82%); type: functional
[22] = tested on: PANC-1; experiment: Induction of apoptosis in human PANC1 cells assessed as viable cells at 10 uM after 24 hrs by FITC-Annexin V/propidium iodide staining-based flow cytometric analysis (reference value: 94.7 to 98.7%); type: functional; conditions: PANC-1, 24 h, read-out: Activity
[23] = tested on: PANC-1; experiment: Induction of apoptosis in human PANC1 cells assessed as nuclear chromatin condensation at 25 uM after 24 hrs by Hoechst 33258 staining based fluorescence microscopic analysis; type: functional, cell-based
[24] = tested on: HT-29; experiment: Antiproliferative activity against human HT-29 cells after 24 hrs by CCK8 assay; type: functional, cell-based; conditions: HT-29, 24 h
[25] = tested on: PANC-1; experiment: Induction of apoptosis in human PANC1 cells assessed as nuclear chromatin condensation at 10 uM after 24 hrs by Hoechst 33258 staining based fluorescence microscopic analysis; type: functional, cell-based
[26] = tested on: PANC-1; experiment: Cell cycle arrest in human PANC1 cells assessed as accumulation at G2/M phase at 10 uM after 24 hrs by RNAase/propidium iodide staining-based flow cytometric analysis (reference value: 6.83 to 11.82%); type: functional
[27] = tested on: PANC-1; experiment: Induction of apoptosis in human PANC1 cells assessed as necrotic cells at 5 uM after 24 hrs by FITC-Annexin V/propidium iodide staining-based flow cytometric analysis (reference value: 0.7 to 1.4%); type: functional
[28] = tested on: PANC-1; experiment: Induction of apoptosis in human PANC1 cells assessed as nuclear shrinkage at 25 uM after 24 hrs by Hoechst 33258 staining based fluorescence microscopic analysis; type: functional, cell-based
[29] = tested on: PANC-1; experiment: Induction of apoptosis in human PANC1 cells assessed as late apoptotic cells at 25 uM after 24 hrs by FITC-Annexin V/propidium iodide staining-based flow cytometric analysis (reference value: 0.0 to 0.7%); type: functional
[30] = tested on: PANC-1; experiment: Induction of apoptosis in human PANC1 cells assessed as early apoptotic cells at 10 uM after 24 hrs by FITC-Annexin V/propidium iodide staining-based flow cytometric analysis (reference value: 0.5 to 3.2%); type: functional
[31] = tested on: PANC-1; experiment: Cell cycle arrest in human PANC1 cells assessed as accumulation at S phase at 5 uM after 24 hrs by RNAase/propidium iodide staining-based flow cytometric analysis (reference value: 11.66 to 19.02%); type: functional
[32] = tested on: PANC-1; experiment: Induction of apoptosis in human PANC1 cells assessed as nuclear shrinkage at 10 uM after 24 hrs by Hoechst 33258 staining based fluorescence microscopic analysis; type: functional, cell-based
[33] = tested on: PANC-1; experiment: Induction of apoptosis in human PANC1 cells assessed as viable cells at 15 uM after 24 hrs by FITC-Annexin V/propidium iodide staining-based flow cytometric analysis (reference value: 94.7 to 98.7%); type: functional; conditions: PANC-1, 24 h, read-out: Activity
[34] = tested on: PANC-1; experiment: Induction of apoptosis in human PANC1 cells assessed as necrotic cells at 15 uM after 24 hrs by FITC-Annexin V/propidium iodide staining-based flow cytometric analysis (reference value: 0.7 to 1.4%); type: functional
[35] = tested on: PANC-1; experiment: Induction of apoptosis in human PANC1 cells after 24 hrs by FITC-Annexin V/propidium iodide staining-based flow cytometric analysis; type: functional, cell-based
[36] = tested on: PANC-1; experiment: Cell cycle arrest in human PANC1 cells assessed as accumulation at S phase at 15 uM after 24 hrs by RNAase/propidium iodide staining-based flow cytometric analysis (reference value: 11.66 to 19.02%); type: functional
[37] = tested on: PANC-1; experiment: Induction of apoptosis in human PANC1 cells assessed as necrotic cells at 25 uM after 24 hrs by FITC-Annexin V/propidium iodide staining-based flow cytometric analysis (reference value: 0.7 to 1.4%); type: functional
[38] = tested on: PANC-1; experiment: Induction of apoptosis in human PANC1 cells assessed as viable cells at 25 uM after 24 hrs by FITC-Annexin V/propidium iodide staining-based flow cytometric analysis (reference value: 94.7 to 98.7%); type: functional; conditions: PANC-1, 24 h, read-out: Activity
[39] = tested on: PANC-1; experiment: Cell cycle arrest in human PANC1 cells assessed as accumulation at G1 phase at 10 uM after 24 hrs by RNAase/propidium iodide staining-based flow cytometric analysis (reference value: 67.93 to 75.87%); type: functional
[40] = tested on: PANC-1; experiment: Induction of apoptosis in human PANC1 cells assessed as nuclear fragmentation at 25 uM after 24 hrs by Hoechst 33258 staining based fluorescence microscopic analysis; type: functional, cell-based

Work on `COC(=O)[C@]1(Cc2ccc(O)c(CC=C(C)C)c2)OC(=O)C(O)=C1c1ccccc1` yielded an Activity [1] of 43.95%, an Activity [2] of 6.8% and an Activity [3] of 1.2%. For the same compound, the Activity [4] was 10.63%, the Activity [5] was 21.1% and the Activity [6] was 14.9%. For the same compound, the Activity [7] was 0.8%, the Activity [8] was “Active” and the Activity [9] was 72.84%. For the same compound, the Activity [10] was 7.77%, the Activity [11] was 52.41% and the IC50 [12] was 9.4 µM. For the same compound, the Activity [13] was 31.28%, the IC50 [14] was greater than 20 µM and the Activity [15] was 1%. For the same compound, the IC50 [16] was 18.7 µM, the Activity [17] was 42.63% and the viability at 5 µM [18] was 91.1%. It also gave an IC50 [19] of 12.9 µM, an Activity [20] of 1.4% and an Activity [21] of 7.7%. For the same compound, the viability at 10 µM [22] was 83.9%, the Activity [23] was “Active” and the IC50 [24] was greater than 20 µM. For the same compound, the Activity [25] was “Active”, the Activity [26] was 8.14% and the Activity [27] was 1.3%. The Activity [28] was “Active”, the Activity [29] was 3% and the Activity [30] was 13.6%. For the same compound, the Activity [31] was 10.92%, the Activity [32] was “Active” and the viability at 15 µM [33] was 83.2%. The Activity [34] was 0.9%, the Activity [35] was “Dose-dependent effect” and the Activity [36] was 32.92%. The Activity [37] was 2.3%, the viability at 25 µM [38] was 73.6% and the Activity [39] was 56.57%. For the same compound, the Activity [40] was “Active”.
